Experimental data reported in PubChem BioAssay AID330 (DTP/NCI, 2004).
Values joined by “and” are separate entries in the source; they are usually repeats but may differ in a detail not shown here. Equal entries are not always repeated. Toxic doses and inconclusive results are not listed. The calls were made as follows: active = survival T/C of 150% or more; inactive = T/C below 125% in these data.

System: P388 leukemia ip, CD2F1 mice, survival T/C
Assay: NCI In Vivo Anticancer Drug Screen. Data for tumor model P388 Leukemia (intraperitoneal) in CD2F1 (CDF1) mice
Settings: endpoint: median survival time, higher = longer survival
Procedure, shortened: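 Mice carrying the transplanted tumor received test compound or vehicle. Survival was recorded in each group, and the value is the treated-group measurement divided by that of the vehicle-treated control group.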

[1] = dose: 100.0 mg/kg/injection, schedule: Q01DX009 (ip), vehicle: saline with Tween-80
[2] = dose: 100.0 mg/kg/injection, schedule: Q04DX003 (ip), vehicle: saline with Tween-80
[3] = dose: 200.0 mg/kg/injection, schedule: Q01DX009 (ip), vehicle: saline with Tween-80
[4] = dose: 200.0 mg/kg/injection, schedule: Q04DX003 (ip), vehicle: saline with Tween-80
[5] = dose: 50.0 mg/kg/injection, schedule: Q01DX009 (ip), vehicle: saline with Tween-80
[6] = dose: 50.0 mg/kg/injection, schedule: Q04DX003 (ip), vehicle: saline with Tween-80
[7] = dose: 50.0 mg/kg/injection, schedule: Q01DX005 (ip), vehicle: saline with Tween-80
[8] = dose: 100.0 mg/kg/injection, schedule: Q01DX005 (ip), vehicle: saline with Tween-80
[9] = dose: 100.0 mg/kg/injection, schedule: Q01DX001 (ip), vehicle: Klucel (hydroxypropylcellulose) (HPC)
[10] = dose: 200.0 mg/kg/injection, schedule: Q01DX001 (ip), vehicle: Klucel (hydroxypropylcellulose) (HPC)
[11] = dose: 400.0 mg/kg/injection, schedule: Q01DX001 (ip), vehicle: Klucel (hydroxypropylcellulose) (HPC)
[12] = dose: 200.0 mg/kg/injection, schedule: Q01DX005 (ip), vehicle: saline with Tween-80

Measured: T/C

N#CC1C(=O)NC(=S)NC1c1ccc2c(c1)CCC2 (centres undefined)
inactive: dose: 50.0 mg/kg/injection, schedule: Q01DX009 (ip), vehicle: saline 100 % of control | dose: 100.0 mg/kg/injection, schedule: Q01DX009 (ip), vehicle: saline 95 % of control | dose: 200.0 mg/kg/injection, schedule: Q01DX009 (ip), vehicle: saline 94 % of control

O=c1[nH]c(=O)c2n[nH]nc2[nH]1
inactive: [1] 86 % of control | [2] 90 % of control | [3] 100 % of control | [4] 90 % of control | dose: 400.0 mg/kg/injection, schedule: Q01DX009 (ip), vehicle: saline with Tween-80 95 % of control | dose: 400.0 mg/kg/injection, schedule: Q04DX003 (ip), vehicle: saline with Tween-80 100 % of control

O=C1CSC(c2ccccc2F)N1c1nncs1 (centres undefined)
inactive: dose: 30.0 mg/kg/injection, schedule: Q01DX005 (ip), vehicle: Klucel (hydroxypropylcellulose) (HPC) 100 % of control | dose: 60.0 mg/kg/injection, schedule: Q01DX005 (ip), vehicle: Klucel (hydroxypropylcellulose) (HPC) 99 % of control | dose: 120.0 mg/kg/injection, schedule: Q01DX005 (ip), vehicle: Klucel (hydroxypropylcellulose) (HPC) 100 % of control | dose: 240.0 mg/kg/injection, schedule: Q01DX005 (ip), vehicle: Klucel (hydroxypropylcellulose) (HPC) 110 % of control

O=C1OC(=O)C2CC=CCC12 (centres undefined)
inactive: [5] 95 % of control | [1] 93 % of control | [3] 100 % of control

O=c1/c(=C/c2ccc(Cl)cc2)sc2nc(-c3ccccc3)nn12
inactive: dose: 50.0 mg/kg/injection, schedule: Q01DX009 (ip), vehicle: Klucel (hydroxypropylcellulose) (HPC) 94 % of control | dose: 100.0 mg/kg/injection, schedule: Q01DX009 (ip), vehicle: Klucel (hydroxypropylcellulose) (HPC) 95 % of control | dose: 200.0 mg/kg/injection, schedule: Q01DX009 (ip), vehicle: Klucel (hydroxypropylcellulose) (HPC) 101 % of control

Cc1ccc(C)c(S(=O)(=O)Nc2c([N+](=O)[O-])cc([N+](=O)[O-])c3ccccc23)c1
inactive: dose: 50.0 mg/kg/injection, schedule: Q04DX002 (ip), vehicle: saline with Tween-80 95 % of control | dose: 100.0 mg/kg/injection, schedule: Q04DX002 (ip), vehicle: saline with Tween-80 88 % of control

NC(CSS(=O)(=O)O)C(=O)O (centres undefined)
inactive: dose: 50.0 mg/kg/injection, schedule: Q01DX005 (ip), vehicle: saline 101 % of control | dose: 100.0 mg/kg/injection, schedule: Q01DX005 (ip), vehicle: saline 106 % of control | dose: 200.0 mg/kg/injection, schedule: Q01DX005 (ip), vehicle: saline 101 % of control

COC(=O)CCN(CCC(=O)OC)Cc1ccccc1
inactive: [6] 101 % of control | [2] 100 % of control | [4] 100 % of control

COc1ccc(Nc2ccc([N+](=O)[O-])c3nonc23)cc1
inactive: [7] 92 % of control | [8] 87 % of control

COc1ccc(-c2c3ccc(OC)cc3n3ccccc23)cc1
inactive: dose: 100.0 mg/kg/injection, schedule: Q01DX002 (ip), vehicle: saline with Tween-80 99 % of control | dose: 200.0 mg/kg/injection, schedule: Q01DX002 (ip), vehicle: saline with Tween-80 97 % of control | dose: 400.0 mg/kg/injection, schedule: Q01DX002 (ip), vehicle: saline with Tween-80 107 % of control

CC12CC3(C)C(Br)C3CC1O2 (centres undefined)
inactive: dose: 44.5 mg/kg/injection, schedule: Q01DX005 (ip), vehicle: saline with Tween-80 97 % of control | dose: 89.0 mg/kg/injection, schedule: Q01DX005 (ip), vehicle: saline with Tween-80 99 % of control | dose: 178.0 mg/kg/injection, schedule: Q01DX005 (ip), vehicle: saline with Tween-80 99 % of control

CC(C)CC1NC(CC(C)C)N2C(CC(C)C)N12 (centres undefined)
inactive: [9] 103 % of control | [10] 103 % of control | [11] 99 % of control

O=C1OC2c3ccccc3C(=O)C2(c2ccccc2)O1 (centres undefined)
inactive: dose: 100.0 mg/kg/injection, schedule: Q01DX001 (ip), vehicle: saline with Tween-80 97 % of control | [8] 97 % of control | dose: 200.0 mg/kg/injection, schedule: Q01DX001 (ip), vehicle: saline with Tween-80 97 % of control | [12] 97 % of control | dose: 400.0 mg/kg/injection, schedule: Q01DX001 (ip), vehicle: saline with Tween-80 96 % of control | dose: 400.0 mg/kg/injection, schedule: Q01DX005 (ip), vehicle: saline with Tween-80 96 % of control

c1ccc(C2=NCCN=C2c2ccccc2)cc1
inactive: [9] 94 % of control | [10] 99 % of control | [11] 93 % of control

C(=NC12CC3CC(CC(C3)C1)C2)C12CC3CC(CC(C3)C1)C2
inactive: [5] 99 % of control | [1] 102 % of control | [3] 96 % of control

Cc1cc[n+](C)c(Cc2ccccc2)c1C
inactive: dose: 12.5 mg/kg/injection, schedule: Q01DX005 (ip), vehicle: Klucel (hydroxypropylcellulose) (HPC) 97 % of control | dose: 25.0 mg/kg/injection, schedule: Q01DX005 (ip), vehicle: Klucel (hydroxypropylcellulose) (HPC) 100 % of control | dose: 50.0 mg/kg/injection, schedule: Q01DX005 (ip), vehicle: Klucel (hydroxypropylcellulose) (HPC) 112 % of control

CNCCCCCc1cc(-c2ccc([N+](=O)[O-])cc2)n[nH]1
inactive: dose: 25.0 mg/kg/injection, schedule: Q04DX003 (ip), vehicle: saline with Tween-80 103 % of control | [6] 103 % of control | [2] 100 % of control and 94 % of control

O=c1[nH]c(=O)c2c(Cl)cccc2[nH]1
inactive: [7] 93 % of control | [8] 100 % of control | [12] 91 % of control
